Where a name gives a salt, the structure may show the parent alone. Read-outs that look alike come from different tables or passages of the source.
How the values were obtained:
Format in all cases: biochemical
[1] = target: T1, human JAK1 (a.a. 837-1142) (Homo sapiens, UniProt P23458); experiment: In vitro JAK kinase assay (HTRF, phosphorylation of a biotinylated peptide), JAK1; details: read-out: JAK1 IC50
T1 construct: human JAK1 (a.a. 837-1142); His tag (N); made in house; host or cells: insect cells (baculovirus)
T1 sequence (P23458 849-1154): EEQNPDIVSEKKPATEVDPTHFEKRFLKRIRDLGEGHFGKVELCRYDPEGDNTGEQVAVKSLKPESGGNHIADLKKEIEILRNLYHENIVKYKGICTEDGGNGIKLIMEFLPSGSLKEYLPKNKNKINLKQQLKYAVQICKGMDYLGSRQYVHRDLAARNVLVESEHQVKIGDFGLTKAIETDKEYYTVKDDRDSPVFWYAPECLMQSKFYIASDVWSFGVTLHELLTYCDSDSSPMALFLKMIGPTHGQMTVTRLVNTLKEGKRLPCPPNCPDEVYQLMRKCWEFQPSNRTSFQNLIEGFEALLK
Procedure, shortened: (§1)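 Kinase activity was measured as phosphorylation of a biotinylated peptide, with ATP at 90 μM for JAK1, 30 μM for JAK2 and 3 μM for JAK3. Reactions ran 1 hr at room temperature, were stopped with EDTA plus SA-APC and Eu-Py20, and were read by HTRF after 40 minutes of antibody binding.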

[2] = target: T2, Recombinant Human Anaplastic Lymphoma Kinase (Homo sapiens, UniProt Q9UM73); experiment: ALK HTRF kinase assay; details: compound at 500 nM or 1 mM; 90 μM ATP
T2 construct: purchased Invitrogen, Carlsbad, Calif
T2 sequence (Q9UM73 19-1620): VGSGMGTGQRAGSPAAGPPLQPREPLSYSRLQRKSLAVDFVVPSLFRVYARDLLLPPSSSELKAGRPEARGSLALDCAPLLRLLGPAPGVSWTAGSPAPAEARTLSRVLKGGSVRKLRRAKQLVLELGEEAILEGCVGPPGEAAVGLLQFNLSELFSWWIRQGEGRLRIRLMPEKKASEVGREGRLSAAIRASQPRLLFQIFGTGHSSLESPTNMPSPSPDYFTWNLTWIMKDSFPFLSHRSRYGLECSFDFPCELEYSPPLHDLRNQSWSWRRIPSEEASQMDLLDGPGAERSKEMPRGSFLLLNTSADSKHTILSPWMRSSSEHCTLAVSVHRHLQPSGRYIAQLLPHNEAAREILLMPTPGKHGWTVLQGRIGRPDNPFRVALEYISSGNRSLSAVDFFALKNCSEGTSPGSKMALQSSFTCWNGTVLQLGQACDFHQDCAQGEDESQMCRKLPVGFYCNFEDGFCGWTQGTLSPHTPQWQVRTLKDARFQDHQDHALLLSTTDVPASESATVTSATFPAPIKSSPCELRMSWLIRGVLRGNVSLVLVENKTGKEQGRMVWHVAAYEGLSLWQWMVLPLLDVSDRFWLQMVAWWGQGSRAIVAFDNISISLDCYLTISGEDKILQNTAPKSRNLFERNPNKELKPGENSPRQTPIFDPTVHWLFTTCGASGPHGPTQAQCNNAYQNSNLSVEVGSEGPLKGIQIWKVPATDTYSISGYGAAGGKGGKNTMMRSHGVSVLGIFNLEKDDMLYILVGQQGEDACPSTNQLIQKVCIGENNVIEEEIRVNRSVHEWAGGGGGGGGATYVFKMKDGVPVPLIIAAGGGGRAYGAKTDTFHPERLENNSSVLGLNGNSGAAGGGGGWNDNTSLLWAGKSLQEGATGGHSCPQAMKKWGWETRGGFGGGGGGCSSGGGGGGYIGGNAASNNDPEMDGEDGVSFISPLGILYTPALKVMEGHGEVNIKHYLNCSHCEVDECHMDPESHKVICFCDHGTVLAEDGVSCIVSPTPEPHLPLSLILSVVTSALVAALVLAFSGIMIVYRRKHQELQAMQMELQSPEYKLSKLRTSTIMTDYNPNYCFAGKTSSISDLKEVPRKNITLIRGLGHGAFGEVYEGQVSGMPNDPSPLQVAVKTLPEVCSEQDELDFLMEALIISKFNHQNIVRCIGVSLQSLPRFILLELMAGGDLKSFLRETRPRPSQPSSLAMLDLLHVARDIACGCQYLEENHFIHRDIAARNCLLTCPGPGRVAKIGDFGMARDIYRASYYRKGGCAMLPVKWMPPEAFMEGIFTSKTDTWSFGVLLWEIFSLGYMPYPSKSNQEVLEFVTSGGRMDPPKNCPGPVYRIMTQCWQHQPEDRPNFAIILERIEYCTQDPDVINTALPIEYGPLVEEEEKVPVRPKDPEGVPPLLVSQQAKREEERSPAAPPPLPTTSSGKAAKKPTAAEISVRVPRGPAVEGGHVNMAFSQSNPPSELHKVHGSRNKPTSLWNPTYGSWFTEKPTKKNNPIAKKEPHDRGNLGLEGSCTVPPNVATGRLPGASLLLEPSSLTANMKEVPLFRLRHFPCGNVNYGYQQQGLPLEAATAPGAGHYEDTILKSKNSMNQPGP
Description: Materials: Recombinant Human Anaplastic Lymphoma Kinase was purchased from Invitrogen, Carlsbad, Calif. Peptide substrate (Biotin-[…]-amide) was custom synthesized at EZBiolab, Westfield, Ind. Streptavidin conjugated SureLight-Allophycocyania and LANCE Eu-W1024 labeled anti-phosphotyrosine antibody were from Perkin-Elmer, Boston, Mass. Microplates were from Corning Inc., Acton, Mass. All other reagents were from Sigma, St. Louis, Mo.
Plates were read in Fusion α-FP instrument (Perkin-Elmer). […] Signal=Bottom+(Top−Bottom)/(1+10^((Log(IC50)−Log [I])*Hill Slope) Bottom and Top refer to the post and pre-transition baselines, respectively.

[3] = target: T3, human JAK2 (a.a. 828-1132) (Homo sapiens, UniProt O60674); experiment: In vitro JAK kinase assay (HTRF, phosphorylation of a biotinylated peptide), JAK2
T3 construct: JAK2 (a.a. 828-1132); His tag (N); made in house; host or cells: insect cells (baculovirus)
T3 sequence (O60674 828-1132): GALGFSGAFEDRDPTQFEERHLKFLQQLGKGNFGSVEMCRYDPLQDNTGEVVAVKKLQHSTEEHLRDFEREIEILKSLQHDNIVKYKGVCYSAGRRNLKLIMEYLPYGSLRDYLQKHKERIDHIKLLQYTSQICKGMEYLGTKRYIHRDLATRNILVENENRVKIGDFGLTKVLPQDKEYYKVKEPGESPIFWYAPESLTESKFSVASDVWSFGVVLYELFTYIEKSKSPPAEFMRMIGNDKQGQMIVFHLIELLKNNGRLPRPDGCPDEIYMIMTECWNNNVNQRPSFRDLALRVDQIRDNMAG
Procedure, shortened: as §1

[4] = target: T4, human JAK3 (a.a. 781-1124) (Homo sapiens, UniProt P52333); experiment: In vitro JAK kinase assay (HTRF, phosphorylation of a biotinylated peptide), JAK3
T4 construct: JAK3 (a.a. 781-1124); His tag (N); made in house; host or cells: insect cells (baculovirus)
T4 sequence (P52333 781-1124): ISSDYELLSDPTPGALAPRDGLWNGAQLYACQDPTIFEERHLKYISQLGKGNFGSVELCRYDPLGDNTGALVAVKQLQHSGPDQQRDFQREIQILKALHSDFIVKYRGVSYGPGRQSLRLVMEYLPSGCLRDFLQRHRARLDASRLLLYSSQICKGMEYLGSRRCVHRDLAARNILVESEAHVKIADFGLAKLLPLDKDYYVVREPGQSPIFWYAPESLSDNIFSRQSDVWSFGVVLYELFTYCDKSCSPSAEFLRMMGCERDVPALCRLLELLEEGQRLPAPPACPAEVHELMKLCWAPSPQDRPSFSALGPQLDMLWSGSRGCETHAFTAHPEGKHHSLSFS
Procedure, shortened: as §1

TYK2 = TYK2 (Homo sapiens, UniProt P29597); experiment: TYK2 kinase inhibition (Table A1)
Sequence of TYK2 (P29597 whole entry): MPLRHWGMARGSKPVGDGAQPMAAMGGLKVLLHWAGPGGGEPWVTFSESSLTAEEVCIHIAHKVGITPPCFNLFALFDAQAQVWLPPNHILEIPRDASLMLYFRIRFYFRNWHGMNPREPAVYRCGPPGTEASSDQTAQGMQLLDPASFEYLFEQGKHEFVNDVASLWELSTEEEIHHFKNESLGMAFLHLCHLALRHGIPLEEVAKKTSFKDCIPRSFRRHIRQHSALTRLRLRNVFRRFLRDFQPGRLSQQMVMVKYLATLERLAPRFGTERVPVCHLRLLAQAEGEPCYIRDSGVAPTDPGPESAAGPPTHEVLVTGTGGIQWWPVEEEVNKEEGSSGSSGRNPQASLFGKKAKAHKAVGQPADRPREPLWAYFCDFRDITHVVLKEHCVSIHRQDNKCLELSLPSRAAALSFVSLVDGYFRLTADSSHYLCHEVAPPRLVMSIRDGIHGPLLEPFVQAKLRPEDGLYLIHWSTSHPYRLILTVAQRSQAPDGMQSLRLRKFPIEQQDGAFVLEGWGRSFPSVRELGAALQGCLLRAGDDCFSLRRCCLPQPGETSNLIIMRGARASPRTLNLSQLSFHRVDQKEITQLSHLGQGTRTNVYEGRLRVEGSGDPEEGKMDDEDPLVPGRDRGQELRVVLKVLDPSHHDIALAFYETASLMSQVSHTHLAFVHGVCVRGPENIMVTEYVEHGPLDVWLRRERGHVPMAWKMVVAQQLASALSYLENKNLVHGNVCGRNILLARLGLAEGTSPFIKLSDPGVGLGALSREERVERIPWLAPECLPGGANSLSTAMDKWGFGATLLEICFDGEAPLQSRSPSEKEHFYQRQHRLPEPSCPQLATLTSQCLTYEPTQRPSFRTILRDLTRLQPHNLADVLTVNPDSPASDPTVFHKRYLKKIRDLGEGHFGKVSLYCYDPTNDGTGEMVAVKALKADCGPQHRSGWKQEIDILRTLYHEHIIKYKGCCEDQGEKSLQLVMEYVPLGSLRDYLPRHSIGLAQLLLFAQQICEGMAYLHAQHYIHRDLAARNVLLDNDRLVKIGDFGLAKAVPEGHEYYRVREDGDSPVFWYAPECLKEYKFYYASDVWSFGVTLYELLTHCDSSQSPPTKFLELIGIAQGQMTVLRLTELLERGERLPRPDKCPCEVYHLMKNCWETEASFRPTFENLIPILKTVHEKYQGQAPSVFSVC

[5] = method AA1 (90 μM ATP) or AA2 (1000 μM ATP), not stated per value
[6] = method AA1 (30 μM ATP) or AA2 (1000 μM ATP), not stated per value
[7] = method AA1 (3 μM ATP) or AA2 (1000 μM ATP), not stated per value

Q: `Cc1nonc1C(=O)N1CCC(CC(=O)Nc2ccc3cc2CCc2cncc(c2)Nc2ncc(Cl)c(n2)N3)CC1` [Example A166, N-[6-Chloro-2,4,8,18,22-pentaazatetracyclo[14.3.1.1(3,7).1(9,13)]docosa-1(20),3(22),4,6,9(21),10,12,16,18-nonaen-12-yl]-2-{1-[(4-methyl-1,2,5-oxadiazol-3-yl)carbonyl]piperidin-4-yl}acetamide bis(trifluoroacetate)] was tested. Which IC50 [1, 5] did it give?
A: The IC50 was 6.5 nM.

Q: And the “ALK % of inhibition at a concentration of 500 nM or 1 mM” value (from here on “ALK % of inhibition”) [2]?
A: The value was 32%.

Q: What about the IC50 [3, 6] of the same compound?
A: The IC50 was 300 nM.

Q: Which results are given for `Cc1ccc(C(=O)N2CCC(CC(=O)Nc3ccc4cc3CCc3cncc(c3)Nc3ncc(Cl)c(n3)N4)CC2)o1` [Example A162, N-[6-Chloro-2,4,8,18,22-pentaazatetracyclo[14.3.1.1(3,7).1(9,13)]docosa-1(20),3(22),4,6,9(21),10,12,16,18-nonaen-12-yl]-2-[1-(5-methyl-2-furoyl)piperidin-4-yl]acetamide bis(trifluoroacetate)]?
A: IC50 [1, 5]: 8.2 nM; ALK % of inhibition at a concentration of 500 nM or 1 mM [2]: 33%; IC50 [3, 6]: 289 nM

Q: How did the IC50 [1, 5] turn out when `Cc1ccoc1C(=O)N1CCC(CC(=O)Nc2ccc3cc2CCc2cncc(c2)Nc2ncc(Cl)c(n2)N3)CC1` [Example A161, N-[6-Chloro-2,4,8,18,22-pentaazatetracyclo[14.3.1.1(3,7).1(9,13)]docosa-1(20),3(22),4,6,9(21),10,12,16,18-nonaen-12-yl]-2-[1-(3-methyl-2-furoyl)piperidin-4-yl]acetamide bis(trifluoroacetate)] was run?
A: The IC50 was 15 nM.

Q: And the “ALK % of inhibition” value [2]?
A: Its value is 27%.

Q: What about the IC50 [3, 6] of the same compound?
A: Its IC50 is 300 nM.

Q: What does the source list for `O=C(CC1CCN(c2nccs2)CC1)Nc1ccc2cc1CCc1cncc(c1)Nc1ncc(Cl)c(n1)N2` [Example A159, N-[6-Chloro-2,4,8,18,22-pentaazatetracyclo[14.3.1.1(3,7).1(9,13)]docosa-1(20),3(22),4,6,9(21),10,12,16,18-nonaen-12-yl]-2-[1-(1,3-thiazol-2-yl)piperidin-4-yl]acetamide tris(trifluoroacetate)]?
A: IC50 [1, 5]: 3.6 nM; ALK % of inhibition at a concentration of 500 nM or 1 mM [2]: 24%; IC50 [3, 6]: 87 nM

Q: What does the source list for `Cc1nocc1C(=O)N1CCC(CC(=O)Nc2ccc3cc2CCc2cncc(c2)Nc2ncc(Cl)c(n2)N3)CC1` [Example A165, N-[6-Chloro-2,4,8,18,22-pentaazatetracyclo[14.3.1.1(3,7).1(9,13)]docosa-1(20),3(22),4,6,9(21),10,12,16,18-nonaen-12-yl]-2-{1-[(3-methylisoxazol-4-yl)carbonyl]piperidin-4-yl}acetamide bis(trifluoroacetate)]?
A: IC50 [1, 5]: 64 nM; ALK % of inhibition at a concentration of 500 nM or 1 mM [2]: 23%; IC50 [3, 6]: > 1000 nM

Q: For `O=C(CC1CCN(C(=O)c2ccns2)CC1)Nc1ccc2cc1CCc1cncc(c1)Nc1ncc(Cl)c(n1)N2` [Example A168, N-[6-Chloro-2,4,8,18,22-pentaazatetracyclo[14.3.1.1(3,7).1(9,13)]docosa-1(20),3(22),4,6,9(21),10,12,16,18-nonaen-12-yl]-2-[1-(isothiazol-5-ylcarbonyl)piperidin-4-yl]acetamide bis(trifluoroacetate)], which IC50 [1, 5] is on record?
A: The IC50 was 22 nM.

Q: And the “ALK % of inhibition” value [2]?
A: The value was 27%.

Q: `O=C(Nc1ccc2cc1CCc1cccc(c1)Nc1ncc(Cl)c(n1)N2)C1CCN(C(=O)Nc2ccc(Cl)nc2)CC1` [Example A40, N(1)-(6-Chloropyridin-3-yl)-N(4)-[6-chloro-2,4,8,22-tetraazatetracyclo[14.3.1.1(3,7).1(9,13)]docosa-1(20),3(22),4,6,9(21),10,12,16,18-nonaen-12-yl]piperidine-1,4-dicarboxamide bis(trifluoroacetate)] was tested. Which IC50 [1, 5] did it give?
A: Its IC50 is 16 nM.

Q: And the IC50 [4, 7]?
A: The IC50 was 30 nM.

Q: What about the IC50 (TYK2) of the same compound?
A: Its IC50 is 18 nM.

Q: And the IC50 [3, 6]?
A: Its IC50 is 15 nM.

Q: For `CC(=O)N1CCC(COc2ccc3cc2CCc2cncc(c2)Nc2ncc(Cl)c(n2)N3)C1` (centres unmarked) [Example C56, 12-[(1-Acetylpyrrolidin-3-yl)methoxy]-6-chloro-2,4,8,18,22-pentaazatetracyclo[14.3.1.1(3,7).1(9,13)]docosa-1(20),3(22),4,6,9(21),10,12,16,18-nonaene bis(trifluoroacetate)], which IC50 [1] is on record?
A: Its IC50 is 216 nM.

Q: What about the IC50 [4] of the same compound?
A: The IC50 was over 400 nM.

Q: And the IC50 (TYK2)?
A: The IC50 was over 400 nM.

Q: And the IC50 [3]?
A: Its IC50 is 255 nM.

Q: How did the IC50 [1] turn out when `O=C(Cc1cccs1)Nc1ccc2cc1CCc1cccc(c1)Nc1ncc(Cl)c(n1)N2` [Example C42, N-[6-Chloro-2,4,8,22-tetraazatetracyclo[14.3.1.1(3,7).1(9,13)]docosa-1(20),3(22),4,6,9(21),10,12,16,18-nonaen-12-yl]-2-(2-thienyl)acetamide trifluoroacetate] was run?
A: The IC50 was 37 nM.

Q: What about the IC50 [4] of the same compound?
A: The IC50 was 346 nM.

Q: And the IC50 (TYK2)?
A: Its IC50 is 96 nM.

Q: And the IC50 [3]?
A: The IC50 was 23 nM.

Q: Which IC50 [1, 5] does the source give for `COc1ccc2cc1Nc1nc(ncc1Cl)Nc1cccc(c1)CC2` [Example A25, 6-Chloro-10-methoxy-2,4,8,22-tetraazatetracyclo[14.3.1.1(3,7).1(9,13)]docosa-1(20),3(22),4,6,9(21),10,12,16,18-nonaene trifluoroacetate] here?
A: The IC50 was 38 nM.

Q: What about the IC50 [4, 7] of the same compound?
A: The IC50 was 14 nM.

Q: And the IC50 (TYK2)?
A: Its IC50 is 122 nM.

Q: And the IC50 [3, 6]?
A: Its IC50 is 21 nM.

Q: Which results are given for `O=C(COc1ccc2cc1CCc1cncc(c1)Nc1ncc(Cl)c(n1)N2)N1CCC(c2cc(-c3cccs3)[nH]n2)CC1` [Example D257, 6-Chloro-12-(2-oxo-2-{4-[5-(2-thienyl)-1H-pyrazol-3-yl]piperidin-1-yl}ethoxy)-2,4,8,18,22-pentaazatetracyclo[14.3.1.1(3,7).1(9,13)]docosa-1(20),3(22),4,6,9(21),10,12,16,18-nonaene tris(trifluoroacetate)]?
A: IC50 ([1]; Table D1): 63 nM; IC50 ([4]; Table D1): > 400 nM; IC50 (TYK2; Table D1): > 400 nM; IC50 ([3]; Table D1): 112 nM

Q: What does the source list for `Cc1ncsc1CCC(=O)Nc1ccc2cc1CCc1cccc(c1)Nc1ncc(Cl)c(n1)N2` [Example C48, N-[6-Chloro-2,4,8,22-tetraazatetracyclo[14.3.1.1(3,7).1(9,13)]docosa-1(20),3(22),4,6,9(21),10,12,16,18-nonaen-12-yl]-3-(4-methyl-1,3-thiazol-5-yl)propanamide trifluoroacetate]?
A: IC50 [1]: 52 nM; IC50 [4]: 1150 nM; IC50 (TYK2): 647 nM; IC50 [3]: 74 nM

Q: For `O=C(Nc1ccccc1)N1CCC(COc2ccc3cc2CCc2cncc(c2)Nc2ncc(Cl)c(n2)N3)CC1` [Example D228, 4-({[6-Chloro-2,4,8,18,22-pentaazatetracyclo[14.3.1.1(3,7).1(9,13)]docosa-1(20),3(22),4,6,9(21),10,12,16,18-nonaen-12-yl]oxy}methyl)-N-phenylpiperidine-1-carboxamide bis(trifluoroacetate)], which IC50 ([1]; Table D1) is on record?
A: Its IC50 is over 400 nM.

Q: What about the IC50 ([4]; Table D1) of the same compound?
A: Its IC50 is over 400 nM.

Q: What about the IC50 (TYK2; Table D1) of the same compound?
A: Its IC50 is over 400 nM.

Q: What about the IC50 ([3]; Table D1) of the same compound?
A: The IC50 was 371 nM.

Q: For `CN1c2cccc(c2)CCc2cccc(c2)Nc2nccc1n2` [Example D223, 8-Methyl-2,4,8,22-tetraazatetracyclo[14.3.1.1(3,7).1(9,13)]docosa-1(20),3(22),4,6,9(21),10,12,16,18-nonaene trifluoroacetate], which IC50 ([1]; Table D1) is on record?
A: Its IC50 is over 400 nM.

Q: What about the IC50 ([4]; Table D1) of the same compound?
A: Its IC50 is over 400 nM.

Q: And the IC50 (TYK2; Table D1)?
A: The IC50 was over 400 nM.

Q: And the IC50 ([3]; Table D1)?
A: Its IC50 is 106 nM.

Q: With `O=C(Nc1ccsc1)N1CCC(CCOc2ccc3cc2CCc2cncc(c2)Nc2ncc(Cl)c(n2)N3)CC1` [Example D166, 4-(2-{[6-Chloro-2,4,8,18,22-pentaazatetracyclo[14.3.1.1(3,7).1(9,13)]docosa-1(20),3(22),4,6,9(21),10,12,16,18-nonaen-12-yl]oxy}ethyl)-N-3-thienylpiperidine-1-carboxamide bis(trifluoroacetate)] as the compound, how does the IC50 ([1]; Table D1) read?
A: Its IC50 is 14 nM.

Q: What about the IC50 ([4]; Table D1) of the same compound?
A: Its IC50 is over 400 nM.

Q: And the IC50 (TYK2; Table D1)?
A: The IC50 was over 400 nM.

Q: And the IC50 ([3]; Table D1)?
A: Its IC50 is 58 nM.

Q: Which results are given for `O=C(Cc1cccnc1)Nc1ccc2cc1CCc1cccc(c1)Nc1ncc(Cl)c(n1)N2` [Example C39, N-[6-Chloro-2,4,8,22-tetraazatetracyclo[14.3.1.1(3,7).1(9,13)]docosa-1(20),3(22),4,6,9(21),10,12,16,18-nonaen-12-yl]-2-pyridin-3-ylacetamide bis(trifluoroacetate)]?
A: IC50 [1]: 54 nM; IC50 [4]: 1220 nM; IC50 (TYK2): 195 nM; IC50 [3]: 29 nM

Q: How did the IC50 [1] turn out when `Cc1cc(CC(=O)Nc2ccc3cc2CCc2cccc(c2)Nc2ncc(Cl)c(n2)N3)on1` [Example C30, N-[6-Chloro-2,4,8,22-tetraazatetracyclo[14.3.1.1(3,7).1(9,13)]docosa-1(20),3(22),4,6,9(21),10,12,16,18-nonaen-12-yl]-2-(3-methylisoxazol-5-yl)acetamide trifluoroacetate] was run?
A: Its IC50 is 31 nM.

Q: What about the IC50 [4] of the same compound?
A: Its IC50 is 990 nM.

Q: What about the IC50 (TYK2) of the same compound?
A: Its IC50 is 136 nM.

Q: And the IC50 [3]?
A: Its IC50 is 56 nM.

Q: Which results are given for `NC1CCN(c2ccc3cc2CCc2cccc(c2)Nc2ncc(Cl)c(n2)N3)C1` (centres unmarked) [Example D88, 1-[6-Chloro-2,4,8,22-tetraazatetracyclo[14.3.1.1(3,7).1(9,13)]docosa-1(20),3(22),4,6,9(21),10,12,16,18-nonaen-12-yl]pyrrolidin-3-amine tris(trifluoroacetate)]?
A: IC50 ([1]; Table D1): 19 nM; IC50 ([4]; Table D1): 15 nM; IC50 (TYK2; Table D1): 14 nM; IC50 ([3]; Table D1): 7.7 nM

Source: patent US8871753B2, “Macrocyclic compounds and their use as kinase inhibitors” (Incyte Corporation, priority 2008, dated 2014)
